Laboratory results reported in ChEMBL document CHEMBL1151840, “Synthetic oligoribonucleotides containing arabinonucleotides act as agonists of TLR7 and 8” (Bioorg Med Chem Lett, 2009).
Activity calls are given as the source filed them.

What was measured:
[1] = Stability in human serum assessed as full-length compound remaining after 10 mins by anion-exchange HPLC; type: ADME, cell-free; conditions: read-out: Stability
Homo sapiens [2] = organism: Homo sapiens; experiment: Stimulation of immune response in human pDC assessed as induction of IL12 production at 150 ug/ml after 24 hrs; type: functional
Homo sapiens [3] = organism: Homo sapiens; experiment: Stimulation of immune response in human pDC assessed as induction of IFN-gamma production at 150 ug/ml after 24 hrs; type: functional
PBMC [4] = experiment: Stimulation of immune response in human PBMC assessed as induction of IL10 production at 150 ug/ml after 24 hrs; type: functional, cell-based
PBMC [5] = experiment: Stimulation of immune response in human PBMC assessed as induction of IL1-beta production at 150 ug/ml after 24 hrs; type: functional, cell-based
[6] = biological target: T1, Toll-like receptor 7 (Homo sapiens) (UniProt Q9NYK1); experiment: Agonist activity at human TLR7 expressed in HEK293XL cells assessed as NF-kappaB activation at 300 ug/ml after 18 hrs; type: functional, cell-based
T1 sequence (whole entry): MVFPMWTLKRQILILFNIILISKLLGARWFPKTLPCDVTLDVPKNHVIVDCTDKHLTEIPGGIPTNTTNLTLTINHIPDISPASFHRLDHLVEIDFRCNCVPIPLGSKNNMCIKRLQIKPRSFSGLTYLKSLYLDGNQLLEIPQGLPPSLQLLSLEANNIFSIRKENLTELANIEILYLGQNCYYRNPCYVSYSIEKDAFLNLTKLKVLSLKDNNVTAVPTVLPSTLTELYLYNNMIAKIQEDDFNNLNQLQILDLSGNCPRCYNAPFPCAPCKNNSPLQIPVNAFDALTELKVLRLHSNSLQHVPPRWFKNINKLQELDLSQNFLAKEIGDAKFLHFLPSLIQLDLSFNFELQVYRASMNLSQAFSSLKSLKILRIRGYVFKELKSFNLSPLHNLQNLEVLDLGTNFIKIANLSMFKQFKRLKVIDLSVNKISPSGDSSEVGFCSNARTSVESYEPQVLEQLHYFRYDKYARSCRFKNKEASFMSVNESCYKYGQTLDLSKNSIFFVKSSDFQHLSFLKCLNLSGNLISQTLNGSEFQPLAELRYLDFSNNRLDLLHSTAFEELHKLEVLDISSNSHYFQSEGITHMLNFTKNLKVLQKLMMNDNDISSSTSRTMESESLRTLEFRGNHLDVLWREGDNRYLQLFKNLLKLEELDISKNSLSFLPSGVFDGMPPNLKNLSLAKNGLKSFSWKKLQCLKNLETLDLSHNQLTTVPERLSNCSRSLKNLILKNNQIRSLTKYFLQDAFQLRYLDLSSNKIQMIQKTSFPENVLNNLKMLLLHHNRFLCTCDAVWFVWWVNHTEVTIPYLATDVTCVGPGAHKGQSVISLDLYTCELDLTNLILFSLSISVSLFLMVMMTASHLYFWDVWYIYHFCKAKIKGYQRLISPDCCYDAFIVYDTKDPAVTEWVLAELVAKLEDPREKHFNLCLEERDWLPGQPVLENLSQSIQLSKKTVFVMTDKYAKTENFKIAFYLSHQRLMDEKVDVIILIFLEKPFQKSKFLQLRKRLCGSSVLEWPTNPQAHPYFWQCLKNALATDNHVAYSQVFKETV

Homo sapiens [7] = organism: Homo sapiens; experiment: Stimulation of immune response in human pDC assessed as induction of MIP1alpha production at 150 ug/ml after 24 hrs; type: functional
PBMC [8] = experiment: Stimulation of immune response in human PBMC assessed as induction of RANTES production at 150 ug/ml after 24 hrs; type: functional, cell-based
PBMC [9] = experiment: Stimulation of immune response in human PBMC assessed as induction of TNFalpha production at 150 ug/ml after 24 hrs; type: functional, cell-based
Homo sapiens [10] = organism: Homo sapiens; experiment: Stimulation of immune response in human pDC assessed as induction of MIP1beta production at 150 ug/ml after 24 hrs; type: functional
Mus musculus = experiment: Stimulation of immune response in C57BL/6 mouse assessed as induction of serum IL12 production at 50 mg/kg, sc after 2 hrs by luminex multiplex assay; type: functional, organism-based; parameters: dose 50 mg/kg
PBMC [11] = experiment: Stimulation of immune response in human PBMC assessed as induction of MIP1alpha production at 150 ug/ml after 24 hrs; type: functional, cell-based
PBMC [12] = experiment: Stimulation of immune response in human PBMC assessed as induction of IL12 production at 150 ug/ml after 24 hrs; type: functional, cell-based
Homo sapiens [13] = organism: Homo sapiens; experiment: Stimulation of immune response in human pDC assessed as induction of TNFalpha production at 150 ug/ml after 24 hrs; type: functional
PBMC [14] = experiment: Stimulation of immune response in human PBMC assessed as induction of IL8 production at 150 ug/ml after 24 hrs; type: functional, cell-based
PBMC [15] = experiment: Stimulation of immune response in human PBMC assessed as induction of MCP1 production at 150 ug/ml after 24 hrs; type: functional, cell-based
PBMC [16] = experiment: Stimulation of immune response in human PBMC assessed as induction of IFNalpha production at 150 ug/ml after 24 hrs; type: functional, cell-based
PBMC [17] = experiment: Stimulation of immune response in human PBMC assessed as induction of MIP1beta production at 150 ug/ml after 24 hrs; type: functional, cell-based
Homo sapiens [18] = organism: Homo sapiens; experiment: Stimulation of immune response in human pDC assessed as induction of IFNalpha production at 150 ug/ml after 24 hrs; type: functional
PBMC [19] = experiment: Stimulation of immune response in human PBMC assessed as induction of IFN-gamma production at 150 ug/ml after 24 hrs; type: functional, cell-based
PBMC [20] = experiment: Stimulation of immune response in human PBMC assessed as induction of IL2R level at 150 ug/ml after 24 hrs; type: functional, cell-based
[21] = biological target: T2, Toll-like receptor 8 (Homo sapiens) (UniProt Q9NR97); experiment: Agonist activity at human TLR8 expressed in HEK293XL cells assessed as NF-kappaB activation after 18 hrs; type: functional, cell-based
T2 sequence (whole entry): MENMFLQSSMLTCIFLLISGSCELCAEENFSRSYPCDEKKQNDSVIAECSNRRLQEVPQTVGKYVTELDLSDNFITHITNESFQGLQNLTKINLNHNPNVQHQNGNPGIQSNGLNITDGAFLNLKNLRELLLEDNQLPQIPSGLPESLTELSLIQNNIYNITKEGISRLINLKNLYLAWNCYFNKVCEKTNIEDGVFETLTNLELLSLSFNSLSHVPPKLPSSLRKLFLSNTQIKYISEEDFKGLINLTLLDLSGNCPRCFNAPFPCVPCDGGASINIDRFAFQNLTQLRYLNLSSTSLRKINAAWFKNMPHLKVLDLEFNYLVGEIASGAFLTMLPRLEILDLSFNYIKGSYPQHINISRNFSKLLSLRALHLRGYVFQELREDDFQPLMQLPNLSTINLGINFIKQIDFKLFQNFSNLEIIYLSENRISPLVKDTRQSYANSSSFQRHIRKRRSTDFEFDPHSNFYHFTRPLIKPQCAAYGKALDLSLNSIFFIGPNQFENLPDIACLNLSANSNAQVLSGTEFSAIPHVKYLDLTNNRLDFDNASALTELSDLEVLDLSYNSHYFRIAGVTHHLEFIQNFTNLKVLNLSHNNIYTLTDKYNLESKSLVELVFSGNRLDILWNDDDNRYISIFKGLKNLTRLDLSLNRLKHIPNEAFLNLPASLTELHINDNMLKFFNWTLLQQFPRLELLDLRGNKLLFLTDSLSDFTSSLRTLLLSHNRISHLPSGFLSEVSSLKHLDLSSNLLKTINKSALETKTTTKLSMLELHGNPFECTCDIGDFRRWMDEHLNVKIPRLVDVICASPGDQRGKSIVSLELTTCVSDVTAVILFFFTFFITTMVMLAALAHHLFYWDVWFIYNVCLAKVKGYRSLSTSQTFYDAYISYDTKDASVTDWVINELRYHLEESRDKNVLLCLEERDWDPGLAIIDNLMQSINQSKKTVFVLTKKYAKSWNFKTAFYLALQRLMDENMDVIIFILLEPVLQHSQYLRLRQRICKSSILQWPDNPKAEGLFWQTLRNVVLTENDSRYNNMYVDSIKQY

Nc1ccn([C@@H]2O[C@H](COP(=O)(S)O[C@H]3[C@@H](O)[C@H](n4ccc(=O)[nH]c4=O)O[C@@H]3COP(=O)(S)O[C@H]3[C@@H](O)[C@H](n4ccc(=O)[nH]c4=O)O[C@@H]3COP(=O)(S)O[C@H]3[C@H](O)[C@H](n4cnc5c(=O)[nH]c(N)nc54)O[C@@H]3COP(=O)(S)O[C@H]3[C@@H](O)[C@H](n4ccc(=O)[nH]c4=O)O[C@@H]3COP(=O)(S)O[C@H]3[C@H](O)[C@H](n4cnc5c(=O)[nH]c(N)nc54)O[C@@H]3COP(=O)(S)OCC(O)COP(=O)(S)O[C@H]3[C@H](O)[C@H](n4cnc5c(=O)[nH]c(N)nc54)O[C@@H]3COP(=O)(S)O[C@H]3[C@@H](O)[C@H](n4ccc(=O)[nH]c4=O)O[C@@H]3COP(=O)(S)O[C@H]3[C@H](O)[C@H](n4cnc5c(=O)[nH]c(N)nc54)O[C@@H]3COP(=O)(S)O[C@H]3[C@@H](O)[C@H](n4ccc(=O)[nH]c4=O)O[C@@H]3COP(=O)(S)O[C@H]3[C@@H](O)[C@H](n4ccc(=O)[nH]c4=O)O[C@@H]3COP(=O)(S)O[C@H]3[C@@H](O)[C@H](n4ccc(N)nc4=O)O[C@@H]3COP(=O)(S)O[C@H]3[C@H](O)[C@H](n4cnc5c(=O)[nH]c(N)nc54)O[C@@H]3COP(=O)(S)O[C@H]3[C@@H](O)[C@H](n4ccc(=O)[nH]c4=O)O[C@@H]3COP(=O)(S)O[C@H]3[C@@H](O)[C@H](n4ccc(N)nc4=O)O[C@@H]3COP(=O)(S)O[C@H]3[C@H](O)[C@H](n4cnc5c(=O)[nH]c(N)nc54)O[C@@H]3COP(=O)(S)O[C@H]3[C@@H](O)[C@H](n4ccc(=O)[nH]c4=O)O[C@@H]3CO)[C@@H](OP(=O)(S)OC[C@H]3O[C@@H](n4cnc5c(=O)[nH]c(N)nc54)[C@@H](O)[C@@H]3OP(=O)(S)OC[C@H]3O[C@@H](n4ccc(=O)[nH]c4=O)[C@H](O)[C@@H]3OP(=O)(S)OC[C@H]3O[C@@H](n4ccc(N)nc4=O)[C@H](O)[C@@H]3OP(=O)(S)OC[C@H]3O[C@@H](n4cnc5c(=O)[nH]c(N)nc54)[C@@H](O)[C@@H]3OP(=O)(S)OC[C@H]3O[C@@H](n4ccc(=O)[nH]c4=O)[C@H](O)[C@@H]3OP(=O)(O)S)[C@H]2O)c(=O)n1 (some centres not stated)
76%: remaining at 10 min [1]
active: Activity (Homo sapiens [2]) | Activity (Homo sapiens [3]) | Activity (PBMC [4]) | Activity (PBMC [5]) | Activity (Homo sapiens [7]) | Activity (PBMC [8]) | Activity (PBMC [9]) | Activity (Homo sapiens [10]) | Activity (PBMC [11]) | Activity (PBMC [12]) | Activity (Homo sapiens [13]) | Activity (PBMC [14]) | Activity (PBMC [15]) | Activity (PBMC [16]) | Activity (PBMC [17]) | Activity (PBMC [19]) | Activity (PBMC [20]) | Activity [21] Dose-dependent effect
inactive: Activity [6] | Activity (Mus musculus) | Activity (Homo sapiens [18])
